Results from US8519188B2, “Compounds which can be used for the treatment of cancers” (Marc-Henry Pitty, priority 2008, dated 2013).
Where a SMILES comes first, the peptide text is derived from it. [ ]: non-standard residue; d: D form. The star is where a group is joined. ξ: configuration not given here. ξV = CC(C)C(N)C(=O)O; BrAc = O=C(CBr)*

Columns and labels:
[1] = test system: MCF-7 breast cancer cell line; test: Cell proliferation (CellTiter 96 AQueous MTS/PMS), MCF-7; assay type: cell-based; conditions: MCF7; for IC50: Homo sapiens, MCF-7, 72 hours of incubation, concentration that induces the death of 50% of the cells, read-out: CI50 for various cell lines (nM) MCF-7
[2] = test system: HL-60 acute promyelocytic leukaemia cell line; test: Cell proliferation (CellTiter 96 AQueous MTS/PMS), HL-60; assay type: cell-based, human; conditions: for IC50: Homo sapiens, HL-60, 72 hours of incubation, read-out: CI50 for various cell lines (nM) HL-60
Experimental: (§1) The effects of the compounds of the invention on the proliferation of cancer cells were studied on various human cancer cell lines of various tissue origins (MCF-7: breast cancer, MCF-7/adr adriamycin-resistant breast cancer, ARH-77: myeloma, ARH-77/Dox: doxorubicin (other name for adriamycin)-resistant myeloma, HL-60: acute promyelocytic leukaemia, HL-60/R10: doxorubicin-resistant acute promyelocytic leukaemia). The cancer cells used for this study were incubated at 37° C. in the presence of one of the compounds of the invention added to the culture medium at various concentrations.
(§2) The cancer cell lines originate from the ATCC (American Type Culture Collection) in the case of MCF-7, ARH-77 and HL-60, from Pharmacell (Paris, France) for HL-60/R10, from Oncodesign (Dijon, France) for ARH-77/Dox and from the Pitié Salpetrière Hospital for MCF-7/adr. They were cultivated in a RPMI 1640 medium containing 2 mM L-glutamine and supplemented with 10% foetal calf serum. All the cell lines were maintained in culture at 37° C. in a moist atmosphere containing 5% CO2. Cell proliferation was evaluated using the “CellTiter 96® AQueous” reagent (Promega, Wis., USA) while adhering to the manufacturer's instructions. The cells were seeded in 96-well culture plates in a proportion of from 5,000 to 10,000 cells per well in 200 μl of culture medium. After 24 hours of preincubation at 37° C., the compounds of the invention dissolved in dimethyl sulphoxide (DMSO) were added individually to each of the wells in a proportion of 2 μl per well. After 72 hours of incubation at 37° C. in a moist atmosphere containing 5% CO2, 40 μL of a MTS/PMS ([3-(4,5-dimethylthiazol-2-yl)-5-(3-carboxymethoxyphenyl)-2-(4-sulphophenyl)-2H-tetrazolium phenazine methosulphate) solution were added to each well.

[3] = test system: MCF-7/adr adriamycin-resistant breast cancer cell line; test: Cell proliferation (CellTiter 96 AQueous MTS/PMS), MCF-7/adr; assay type: cell-based; conditions: for IC50: Homo sapiens, NCI/ADR-RES, MCF-7/adr, 72 hours of incubation, concentration that induces the death of 50% of the cells, read-out: CI50 for various cell lines (nM) MCF-7/adr
[4] = test system: HL-60/R10 doxorubicin-resistant acute promyelocytic leukaemia cell line; test: Cell proliferation (CellTiter 96 AQueous MTS/PMS), HL-60/R10; assay type: cell-based, human; conditions: for IC50: Homo sapiens, HL-60/R10, 72 hours of incubation, read-out: CI50 for various cell lines (nM) HL-60/R10
Experimental: as §1, §2

[5] = test system: ARH-77/Dox doxorubicin-resistant myeloma cell line; test: Cell proliferation (CellTiter 96 AQueous MTS/PMS), ARH-77/Dox; assay type: cell-based; conditions: Homo sapiens, 72 hours of incubation, read-out: CI50 for various cell lines (nM) ARH-77/Dox
Experimental: as §1, §2

[6] = test system: ARH-77 myeloma cell line; test: Cell proliferation (CellTiter 96 AQueous MTS/PMS), ARH-77; assay type: cell-based; conditions: Homo sapiens, 72 hours of incubation, read-out: CI50 for various cell lines (nM) ARH-77
Experimental: as §1, §2

CC(C)C(NC(=O)CBr)C(=O)NCC(=O)O (centres unmarked) [BADLG, reference compound] (BrAc-[ξV]-Gly-OH)
cytotoxic activity (concentration at which detected) ([1]; no cytotoxic activity detected for concentrations below 10 μM, same conditions as above): ≥ 10 µM
cytotoxic activity (concentration at which detected) ([2]; HL60, no cytotoxic activity detected for concentrations below 10 μM, same conditions as above): ≥ 10 µM
cytotoxic activity (concentration at which detected) ([3]; MCF7/adr, no cytotoxic activity detected for concentrations below 10 μM, same conditions as above): ≥ 10 µM
cytotoxic activity (concentration at which detected) ([4]; HL60/R10, no cytotoxic activity detected for concentrations below 10 μM, same conditions as above): ≥ 10 µM

C#CC(=O)N(c1cccc(C(F)(F)F)c1)C(C(=O)NCc1ccccc1)c1cccs1 (centres unmarked) [Compound 1, Propynoic Acid (benzylcarbamoylthiophen-2-yl-methyl)-(3-trifluoromethylphenyl)amide]
IC50 [5]: 12 nM
IC50 [6]: 46 nM
IC50 [1]: 224 nM
IC50 [2]: 1340 nM
IC50 [3]: 1.6 nM
IC50 [4]: 32 nM

C#CC(=O)N(c1ccc(C(F)(F)F)cc1)C(C(=O)NC1CCCCC1)c1cccs1 (centres unmarked) [Compound 2, Propynoic Acid (cyclohexylcarbamoylthiophen-2-yl-methyl)-(4-trifluoromethylphenyl)amide]
IC50 [5]: 6 nM
IC50 [6]: 92 nM
IC50 [1]: 150 nM
IC50 [2]: 2080 nM
IC50 [3]: 0.7 nM
IC50 [4]: 95 nM

C#CC(=O)N(c1cccc(C(F)(F)F)c1)C(C(=O)NC1CCCCC1)c1cccs1 (centres unmarked) [Compound 3, Propynoic Acid (cyclohexylcarbamoylthiophen-2-yl-methyl)-(3-trifluoromethylphenyl)amide]
IC50 [5]: 5 nM
IC50 [6]: 58 nM
IC50 [1]: 275 nM
IC50 [2]: 2960 nM
IC50 [3]: 2.6 nM
IC50 [4]: 46 nM

C#CC(=O)N(c1ccc(C(F)(F)F)cc1)C(C(=O)NCc1ccccc1)c1cccs1 (centres unmarked) [Compound 4, Propynoic Acid (benzylcarbamoylthiophen-2-yl-methyl)-(4-trifluoromethylphenyl)amide]
IC50 [5]: 25 nM
IC50 [6]: 103 nM
IC50 [2]: 1630 nM
IC50 [3]: 0.9 nM
IC50 [4]: 76 nM

C#CC(=O)N(c1cccc(C(F)(F)F)c1)C(C(=O)NCc1ccccc1)c1ccc(C)s1 (centres unmarked) [Compound 21, Propynoic Acid [benzylcarbamoyl-(5-methylthiophen-2-yl)-methyl]-(3-trifluoromethylphenyl)amide]
IC50 [5]: 6 nM
IC50 [6]: 60 nM
IC50 [2]: 2020 nM
IC50 [4]: 43 nM

CC(C)(C(=O)NCc1ccc(F)cc1)N(C(=O)CCl)c1ccc(F)cc1 [Compound 185, 2-[(2-Chloroacetyl)-(4-fluoro-phenyl)-amino]-N-(4-fluoro-benzyl)-2-methyl-propionamide]
IC50 [1]: 2790 nM
IC50 [3]: 127 nM

COc1ccc(CNC(=O)C(C)(C)N(C(=O)CCl)c2ccc(F)cc2)cc1 [Compound 186, 2-[(2-Chloro-acetyl)-(4-fluoro-phenyl)-amino]-N-(4-methoxy-benzyl)-2-methyl-propionamide]
IC50 [2]: 362 nM
IC50 [4]: 78 nM

COc1ccc(CNC(=O)C(C)(C)N(C(=O)CCl)c2ccc(Oc3ccccc3)cc2C)cc1 [Compound 187, 2-[(2-Chloro-acetyl)-(2-methyl-4-phenoxy-phenyl)-amino]-N-(4-methoxy-benzyl)-2-methyl-propionamide]
IC50 [1]: 1130 nM
IC50 [3]: 99 nM

Cc1c(Cl)cccc1N(C(=O)CCl)C(C)(C)C(=O)NCc1ccc(F)cc1 [Compound 188, 2-[(2-Chloro-acetyl)-(3-chloro-2-methyl-phenyl)-amino]-N-(4-fluoro-benzyl)-2-methyl-propionamide]
IC50 [2]: 2500 nM
IC50 [4]: 176 nM

CN1CCN(CCCOc2ccc(C(C(=O)NC3CCCCC3)N(C(=O)CCl)c3cccc(C(C)(C)C)c3)cc2)CC1 (centres unmarked) [Compound 189, 2-[(3-tert-Butyl-phenyl)-(2-chloro-acetyl)-amino]-N-cyclohexyl-2-[4-[3-(4-methyl-piperazin-1-yl)-propoxy]-phenyl]-acetamide]
IC50 [1]: 360 nM
IC50 [3]: 72 nM

CC(C)c1ccc(N(C(=O)CCl)C(C(=O)NC2CCCCC2)c2ccc(OCCCN3CCN(C)CC3)cc2)c(F)c1 (centres unmarked) [Compound 192, 2-[(2-Chloro-acetyl)-(2-fluoro-4-isopropyl-phenyl)-amino]-N-cyclohexyl-2-{4-[3-(4-methyl-piperazin-1-yl)-propoxy]-phenyl}-acetamide]
IC50 [2]: 524 nM
IC50 [4]: 140 nM

O=C(C(c1cccs1)N(C(=O)CCl)c1cccc(C(F)(F)F)c1)N1CCN(C2CCCCC2)CC1 (centres unmarked) [Compound 197]
IC50 [1]: 1380 nM
IC50 [3]: 37 nM

O=C(OCc1ccccc1)N1CCN(C(=O)C(c2cccs2)N(C(=O)CCl)c2cccc(C(F)(F)F)c2)CC1 (centres unmarked) [Compound 198, 4-{2-[(2-chloro-acetyl)-(3-trifluoromethyl-phenyl)-amino]-2-thiophen-2-yl-acetyl}-piperazine-1-carboxylic acid benzyl ester]
IC50 [1]: 1080 nM
IC50 [3]: 55 nM

CC(C)c1cccc(N(C(=O)CCl)C(C(=O)N2CCN(C3CCCCC3)CC2)c2cccs2)c1 (centres unmarked) [Compound 199]
IC50 [1]: 1860 nM
IC50 [3]: 23 nM

CN(C(=O)N1CCN(C(=O)C(c2cccs2)N(C(=O)CCl)c2cccc(C(F)(F)F)c2)CC1)c1ccccc1 (centres unmarked) [Compound 204, 4-{2-[(2-Chloroacetyl)-(3-trifluoromethylphenyl)-amino]-2-thiophen-2-yl-acetyl}piperazine-1-carboxylic acid methylphenyl-amide]
IC50 [1]: 741 nM
IC50 [3]: 89 nM

O=C(OCc1ccccc1)N1CCN(C(=O)C(c2cccs2)N(C(=O)CCl)c2ccc(Oc3ccccc3)cc2)CC1 (centres unmarked) [Compound 206]
IC50 [1]: 2500 nM
IC50 [3]: 38 nM
